In DBAASP:
≈ marks a conversion by molar mass, not a printed value.

Legend:
Assay in all cases: ≥ marks a high value that may be exact or a test limit, other limits are often not marked, values filed in µg/mL are converted to µM
[1] = tested on: Escherichia coli ATCC 25922
[2] = tested on: Escherichia coli
[3] = tested on: Pseudomonas aeruginosa ATCC 27853
[4] = tested on: Salmonella enterica subsp. enterica serovar Enteritidis
[5] = tested on: Salmonella sp.
[6] = tested on: Staphylococcus aureus ATCC 29213
[7] = tested on: Staphylococcus aureus ATCC 43300
[8] = tested on: Yersinia enterocolitica
[9] = tested on: Staphylococcus aureus ATCC 25923
[10] = tested on: Staphylococcus aureus ATCC BAA-1683
[11] = tested on: Candida albicans DBFIQ 1
[12] = tested on: Candida albicans PEEC 2
[13] = tested on: Candida tropicalis DBFIQ 3
[14] = tested on: Enterococcus faecalis ATCC 29212
[15] = tested on: Escherichia coli ATCC 35218
[16] = tested on: Staphylococcus aureus BSF FBCB1313
[17] = tested on: Achromobacter xylosoxidans
[18] = tested on: Candida albicans
[19] = tested on: Escherichia coli UB1005
[20] = tested on: Pseudomonas aeruginosa M1251
[21] = tested on: Pseudomonas aeruginosa M1426
[22] = tested on: Pseudomonas aeruginosa M76
[23] = tested on: Pseudomonas aeruginosa M917
[24] = tested on: Pseudomonas aeruginosa PAO1
[25] = tested on: Pseudomonas aeruginosa R70
[26] = tested on: Pseudomonas fluorescens
[27] = tested on: Ralstonia pickettii
[28] = tested on: Salmonella enterica serovar Typhimurium
[29] = tested on: Staphylococcus aureus
[30] = tested on: Stenotrophomonas maltophilia
[31] = tested on: Aeromonas salmonicida
[32] = tested on: Pseudomonas aeruginosa K799
[33] = tested on: Pseudomonas aeruginosa Z61
[34] = tested on: Salmonella enterica serovar typhimurium MS7953s
[35] = tested on: Salmonella enterica subsp. enterica serovar Typhimurium ATCC 14028s
[36] = tested on: Staphylococcus epidermidis C621
[37] = tested on: Vibrio anguillarum
[38] = tested on: Bacillus subtilis DELTA
[39] = tested on: Candida parapsilosis
[40] = tested on: Escherichia coli DH5alpha
[41] = tested on: Zymomonas mobilis ATCC 10988
[42] = tested on: Acinetobacter baumannii ATCC 7978
[43] = tested on: Candida albicans ATCC 10231
[44] = tested on: Enterococcus faecium E007
[45] = tested on: Staphylococcus aureus ATCC 29231
[46] = tested on: Cryptococcus neoformans ATCC 32264

CC[C@H](C)[C@H](NC(=O)[C@H](CCC(N)=O)NC(=O)[C@@H](N)CCCN=C(N)N)C(=O)N[C@@H](Cc1c[nH]c2ccccc12)C(=O)N[C@@H](CCCN=C(N)N)C(=O)N[C@@H](Cc1c[nH]c2ccccc12)C(=O)N[C@@H](Cc1c[nH]c2ccccc12)C(=O)N[C@@H](CCC(N)=O)C(=O)N[C@@H](Cc1c[nH]c2ccccc12)C(N)=O [RQIWRWWQW]
MIC [1]: > 50 µM
MIC [2]: > 50 µM
MIC [3]: > 50 µM
MIC [4]: ≥ 50 µM
MIC [5]: ≥ 50 µM
MIC [6]: > 50 µM
MIC [7]: > 50 µM
MIC [8]: ≥ 50 µM

CC(C)C[C@H](NC(=O)[C@H](CC(C)C)NC(=O)[C@H](CCCN=C(N)N)NC(=O)[C@H](CCCCN)NC(=O)[C@H](CCCCN)NC(=O)[C@@H](N)CCC(=O)O)C(=O)N[C@@H](CCCCN)C(=O)N[C@@H](Cc1c[nH]c2ccccc12)C(=O)N[C@@H](Cc1c[nH]c2ccccc12)C(=O)N[C@@H](CCCN=C(N)N)C(N)=O [EKKRLLKWWR]
MIC [2]: 347 µM (≈ 500 µg/mL)
MIC [9]: 86.6 µM (≈ 125 µg/mL)
MIC [10]: ≥ 86.6 µM

CC(C)C[C@H](NC(=O)[C@H](CCCCN)NC(=O)[C@H](CCCCN)NC(=O)[C@H](Cc1ccccc1)NC(=O)[C@H](CC(C)C)NC(=O)[C@@H](N)CCCCN)C(=O)N[C@@H](Cc1ccccc1)C(=O)N[C@@H](CCCCN)C(N)=O [KLFKKLFK]
MIC [11]: ≥ 122 µM
MIC [12]: ≥ 122 µM
MIC [13]: ≥ 122 µM
MIC [14]: 15.2 µM (≈ 16 µg/mL)
MIC [15]: 7.6 µM (≈ 7.98 µg/mL)
MIC [3]: 60.9 µM (≈ 64 µg/mL)
MIC [9]: 7.6 µM (≈ 7.98 µg/mL)
MIC [16]: 30.5 µM (≈ 32 µg/mL)

CC[C@H](C)[C@H](NC(=O)[C@H](Cc1ccccc1)NC(=O)[C@H](CO)NC(=O)[C@H](CCCCN)NC(=O)[C@H](Cc1c[nH]c2ccccc12)NC(=O)[C@@H](N)CCCCN)C(=O)N[C@@H](CCCCN)C(=O)N[C@@H](CCCCN)C(=O)N[C@@H](CC(C)C)C(=O)N[C@H](C(=O)N[C@@H](CCCCN)C(=O)N[C@@H](C)C(=O)N[C@@H](C)C(=O)N[C@@H](CCCCN)C(=O)N[C@@H](CCCCN)C(=O)N[C@H](C(=O)N[C@H](C(=O)N[C@H](C(=O)N[C@H](C(=O)N[C@@H](C)C(=O)N[C@@H](CCCCN)C(=O)N[C@@H](CCCCN)C(=O)N1CCC[C@H]1C(=O)N[C@@H](CC(C)C)C(=O)N[C@H](C(=O)N[C@H](C(N)=O)C(C)C)[C@@H](C)CC)[C@@H](C)O)[C@@H](C)O)C(C)C)C(C)C)[C@@H](C)O [KWKSFIKKLTKAAKKVVTTAKKPLIV]
MIC [17]: 1.35 µM (≈ 4 µg/mL)
MIC [18]: > 43.3 µM
MIC [19]: 0.677 µM (≈ 2 µg/mL)
MIC [20]: 0.677 µM (≈ 2 µg/mL)
MIC [21]: 1.35 µM (≈ 4 µg/mL)
MIC [22]: 1.35 µM (≈ 4 µg/mL)
MIC [23]: 10.8 µM (≈ 32 µg/mL)
MIC [24]: 1.35 µM (≈ 4 µg/mL)
MIC [25]: 0.677 µM (≈ 2 µg/mL)
MIC [26]: 0.677 µM (≈ 2 µg/mL)
MIC [27]: 0.677 µM (≈ 2 µg/mL)
MIC [28]: 1.35 µM (≈ 4 µg/mL)
MIC [29]: > 43.3 µM
MIC [30]: 0.338 µM (≈ 1 µg/mL)

CSCC[C@H](NC(=O)[C@@H](NC(=O)[C@H](CCCCN)NC(=O)[C@H](Cc1c[nH]c2ccccc12)NC(=O)[C@H](CC(C)C)NC(=O)[C@H](C)N)[C@@H](C)O)C(=O)N[C@@H](CC(C)C)C(=O)N[C@@H](CCCCN)C(=O)N[C@@H](CCCCN)C(=O)N[C@@H](C)C(=O)N[C@@H](C)C(=O)N[C@@H](Cc1cnc[nH]1)C(=O)N[C@H](C(=O)NCC(=O)N[C@@H](CCCCN)C(=O)N[C@@H](Cc1cnc[nH]1)C(=O)N[C@H](C(=O)NCC(=O)N[C@@H](CCCCN)C(=O)N[C@@H](C)C(=O)N[C@@H](C)C(=O)N[C@@H](CC(C)C)C(=O)N[C@H](C(=O)N[C@@H](Cc1cnc[nH]1)C(=O)N[C@@H](Cc1ccc(O)cc1)C(=O)N[C@@H](CC(C)C)C(=O)N[C@@H](CC(N)=O)C(=O)O)[C@@H](C)O)C(C)C)C(C)C [ALWKTMLKKAAHVGKHVGKAALTHYLN]
MIC [31]: 0.335 µM (≈ 1 µg/mL)
MIC [32]: 1.34 µM (≈ 4 µg/mL)
MIC [33]: 2.68 µM (≈ 8 µg/mL)
MIC [34]: 0.167 µM (≈ 0.5 µg/mL)
MIC [35]: 1.34 µM (≈ 4 µg/mL)
MIC [36]: 1.34 µM (≈ 4 µg/mL)
MIC [37]: 1.34 µM (≈ 4 µg/mL)

CC[C@H](C)[C@H](NC(=O)[C@H](CCCN=C(N)N)NC(=O)[C@H](CCC(N)=O)NC(=O)[C@H](CC(C)C)NC(=O)[C@@H](NC(=O)[C@H](CCCN=C(N)N)NC(=O)[C@H](CCCCN)NC(=O)[C@H](Cc1ccccc1)NC(C)=O)[C@@H](C)CC)C(=O)N[C@@H](CCCCN)C(=O)N[C@@H](CC(=O)O)C(=O)N[C@@H](Cc1ccccc1)C(=O)N[C@@H](CC(C)C)C(=O)N[C@@H](CCCN=C(N)N)C(N)=O [FKRILQRIKDFLR]
MIC [38]: ≥ 57.7 µM
MIC [39]: 23.1 µM (≈ 40.9 µg/mL)
MIC [40]: ≥ 57.7 µM
MIC [24]: 11.5 µM (≈ 20.5 µg/mL)
MIC [41]: 28.8 µM (≈ 51.2 µg/mL)

CC[C@H](C)[C@H](NC(=O)[C@H](CCCCN)NC(=O)[C@H](Cc1c[nH]c2ccccc12)NC(=O)[C@H](Cc1c[nH]c2ccccc12)NC(=O)[C@@H](NC(=O)[C@H](CCCCN)NC(=O)[C@H](Cc1c[nH]c2ccccc12)NC(=O)[C@@H](N)CC(C)C)[C@@H](C)CC)C(=O)N[C@@H](Cc1c[nH]c2ccccc12)C(=O)N[C@@H](CCCN=C(N)N)C(=O)N[C@H](C(=O)N[C@@H](Cc1c[nH]c2ccccc12)C(=O)N[C@@H](CCCCN)C(=O)N[C@@H](CC(N)=O)C(=O)N[C@@H](Cc1c[nH]c2ccccc12)C(=O)N[C@@H](CCCN=C(N)N)C(=O)O)C(C)C [LWKIWWKIWRVWKNWR]
MIC [42]: ≥ 53.7 µM
MIC [43]: 26.8 µM (≈ 64 µg/mL)
MIC [44]: ≥ 53.7 µM
MIC [45]: 3.35 µM (≈ 7.99 µg/mL)

CC[C@H](C)[C@H](NC(=O)[C@H](CCC(N)=O)NC(=O)[C@@H](N)CCCN=C(N)N)C(=O)N[C@@H](CCCN=C(N)N)C(=O)N[C@@H](CCCN=C(N)N)C(=O)N[C@@H](Cc1c[nH]c2ccccc12)C(=O)N[C@@H](Cc1c[nH]c2ccccc12)C(=O)N[C@@H](CCC(N)=O)C(=O)N[C@@H](Cc1c[nH]c2ccccc12)C(=O)N[C@@H](CCCN=C(N)N)C(=O)N[C@@H](CCCN=C(N)N)C(N)=O [RQIRRWWQWRR]
MIC [43]: 50 µM (≈ 86.3 µg/mL)
MIC [46]: 25 µM (≈ 43.2 µg/mL)
